Experimental data as given in ChEMBL document CHEMBL3045917, “Insecticidal cyclodepsipeptides from Beauveria felina” (2011).
Converted amounts (≈) assume the structure as drawn. Where a SMILES comes first, the peptide text is derived from it. [ ]: non-standard residue; d: D form. ξ: configuration not given here. ξLac(3-iPr) = CC(C)CC(O)C(=O)O; NMeV = CN[C@H](C(=O)O)C(C)C; βAla = NCCC(=O)O

Columns and labels:
Sitophilus = experiment: Insecticidal activity against Sitophilus spp. assessed as mortality after 5 days; format: functional; conditions: 120 h, read-out: LD50 (the source's name)
Callosobruchus maculatus = experiment: Insecticidal activity against Callosobruchus maculatus assessed as mortality after 5 days; format: functional; conditions: 120 h, read-out: LD50 (the source's name)

| Structure (SMILES) | LC50 (Sitophilus) [µg/mL] | LC50 (Callosobruchus maculatus) [µg/mL] |
| --- | --- | --- |
| CC(C)CC1OC(=O)CCNC(=O)[C@H](C(C)C)N(C)C(=O)[C@H](C(C)C)N(C)C(=O)[C@H](Cc2ccccc2)NC(=O)[C@@H]2CCCN2C1=O (stereo partly drawn) [ISARIDIN E] (cyclo(F[NMeV][NMeV][βAla][ξLac(3-iPr)]P)) | 300 (≈ 457 µM) | 220 (≈ 335 µM) |
| CCCCC(C)C1CC(=O)NCC(=O)N[C@@H](C(C)C)C(=O)N[C@H](CC(C)C)C(=O)N[C@@H](C)C(=O)N[C@H](C(C)C)C(=O)O1 (stereo partly drawn) [ISO-ISARIIN B] | 10 (≈ 16.8 µM) |  |
